Measurements published in article PMC6943742, “Peptide/Peptoid Hybrid Oligomers: The Influence of Hydrophobicity and Relative Side-Chain Length on Antibacterial Activity and Cell Selectivity” (Molecules, 2019).
≈ marks a conversion by molar mass, not a printed value. Like-named read-outs stand apart in the source and are kept apart here. Non-standard residues stand in square brackets, D forms with d. Residues, ends and D or L forms follow the SMILES beside them. N(5-aminopentyl)Gly = NCCCCCNCC(=O)O; Gly(NCH2CH2Ph) = O=C(O)CNCCc1ccccc1; Gly(N-2-aminoethyl) = NCCNCC(=O)O; hPhe = N[C@@H](CCc1ccccc1)C(=O)O; hLys = NCCCCC[C@H](N)C(=O)O; Nphe = O=C(O)CNCc1ccccc1; Orn = NCCC[C@H](N)C(=O)O; Dab = NCC[C@H](N)C(=O)O

Assays:
[1] = in vitro; assay type: cell-based; settings: human, Hemolytic Activity (percentage hemolysis)
Method: The lysis of human red blood cells was measured as previously described, with modifications. In brief, freshly drawn human red blood cells (hRBCs) were washed three times with PBS buffer and centrifuged two times for 5 min at 2500 rpm. A two-fold serial dilution of peptidomimetics in PBS buffer was added to each well in a sterile polypropylene V-bottom 96-well plate to the total volume of 75 μL. A 0.5% v/v hRBC suspension (75 μL in PBS buffer) was added to each well to reach a final volume of 150 μL in each well. The plate was incubated (37 °C) for 60 min, and then the cells were subsequently pelleted by centrifugation at 1000 rpm for 5 min. The supernatants (50 μL) were transferred to clear, flat-bottomed plastic 96-well plates. The concentration of hemoglobin was detected by measuring the OD at 405 nm. The OD of cells incubated with 0.1% SDS defined 100% hemolysis, while the OD of cells incubated with PBS buffer defined 0% hemolysis. The concentrations tested were 200, 400, and 800 μg/mL (only average values for the highest concentration are stated in Table 2).

[2] = system: HepG2 cell line ATCC HB-8065; assay: in vitro; assay type: cell-based; settings: 48 h
Method: Side effects affecting cell viability were estimated on the HepG2 cell line ATCC HB-8065. In brief, HepG2 cells were seeded in flat-bottomed 96-well plates at a concentration of 5000 cells per well. At 80−90% confluency, the cells were incubated for 24 h in a humidified incubator (5% CO2, 37 °C). The medium was removed, and the cells were incubated for 48 h in a humidified incubator (5% CO2, 37 °C) with compounds in two-fold serial dilutions. An MTT assay was then performed as previously described. In brief, after incubation with the test compounds, the culture medium was removed and fresh medium with 0.2 mg/mL MTT was added in each well of the plate. After incubation (3 h, 37 °C, 5% CO2), the medium with MTT was removed, and 200 μL dimethyl sulfoxide were added at once to each sample. Absorbance of MTT was measured using spectrophotometer TECAN Infinite M1000 at 540 nm. The relative viability was calculated by using the formula: ODtreated cells × 100/ODcontrol cells. The IC50 values are calculated by using the program Graph Pad Prism® 5.0. For all compounds, the test range was 10–1280 μg/mL.

[3] = system: P. aeruginosa PAO1; assay type: cell-based
Method: (§1) MIC values were evaluated by using the modified Hancock lab protocol in non-binding polystyrene microtitre plates, with bacterial suspensions of ∼2 × 10^5 CFU/mL in Mueller-Hinton broth (Difco, Sparks MD, USA), with Mg^2+ and Ca^2+ concentrations of 4 mg/L each. The compounds were dissolved in H2O and diluted in 0.01% acetic acid, 0.2% BSA (final concentration). Aliquots of 11 µL of 10 × test compounds were then transferred to the appropriate wells with bacterial suspensions. For preparation and transfer of the solutions of the compounds, low-binding sterile tubes and tips (Axygen, Union City CA, USA) were used. After 20 h incubation of covered plates at 35 °C (±2 °C) with circular shaking at 220 rpm, the MICs were read. The antibacterial activity of peptidomimetics was tested against E. coli ATCC 25922, K. pneumoniae ATCC 13883, P. aeruginosa ATCC 27853, P. aeruginosa PAO1, A. baumannii ATCC 19606, S. aureus ATCC 29213, and E. faecalis ATCC 29212.

[4] = system: K. pneumoniae ATCC 13883; assay type: cell-based
Method: as §1

[5] = system: E. faecalis ATCC 29212; assay type: cell-based
Method: as §1

[6] = system: E. coli ATCC 25922; assay type: cell-based
Method: as §1

[7] = system: P. aeruginosa ATCC 27853; assay type: cell-based
Method: as §1

[8] = system: S. aureus ATCC 29213; assay type: cell-based
Method: as §1

[9] = Relative hydrophobicity by RP-HPLC (% MeCN at peak elution); assay type: physicochemical; settings: RP-HPLC gradient 0 → 60% B during 10 min; % MeCN at peak elution calculated from retention time
Method: The relative hydrophobicity of each peptidomimetic was measured by reverse-phase high-performance liquid chromatography (RP-HPLC). Typically, the RP-HPLC retention time (or percentage acetonitrile at peak elution) constitutes the preferred measure that allows for comparison of relative hydrophobicity, while log P values of polycationic peptides or peptidomimetics normally are considered unsuitable due to the extreme hydrophilic nature of such compounds [11, 45, 57, 58, 59, 60]. […] For both subgroups III (with cationic amino acid residues and the peptoid analogue of Phe, NPhe, i.e., 9–12) and IV (with cationic amino acid residues and the peptoid analogue of hPhe, NhPhe, i.e., 13–16) only minor differences in hydrophobicity were seen. These observations infer that, when the cationic residues are of a peptoid nature, the side-chain length of these has a […] influence on the hydrophobicity. […] Thus, introduction of additional six methylene groups results, as expected, in increased hydrophobicity.
Starting materials and solvents were purchased from commercial suppliers (Iris Biotech, Markredwitz, Germany; Fluorochem, Hadfield, United Kingdom; and Merck, Darmstadt, Germany) and used without further purification. Water used for analytical and preparative high-performance liquid chromatography (HPLC) was filtered through a 0.22-μm Millipore membrane filter. Purity and retention time of each peptidomimetic were determined by analytical UHPLC by using a Phenomenex Luna C18(2) HST column (100 mm × 3 mm; particle size: 2.5 μm; pore size: 100 Å) on a Shimadzu Prominence and Shimadzu Nexera system using an aqueous acetonitrile (MeCN) gradient with 0.1% trifluoroacetic acid (TFA) added (eluent A: 5:95 MeCN–H2O + 0.1% TFA, eluent B: 95:5 MeCN–H2O + 0.1% TFA); a flow rate of 0.5 mL/min was used. For elution of peptidomimetics, a linear gradient of 0% to 60% B during 10 min was used with UV detection at λ = 220 nm. […] For each peptidomimetic, the percentage of MeCN at peak elution was calculated from the retention time by using the following formula:(1) %MeCN = 0.95 (0.6Rt/10 min.) + 0.05 (1−0.6Rt/10 min.).

[10] = system: A. baumannii ATCC 19606; assay type: cell-based
Method: as §1

Molecule | hemolysis at 60 min, 800 µg/mL [1] | IC50 for inhibiting growth of HepG2 cells [2] | MIC ([3]; PAO1, 20 h) | MIC ([4]; ATCC 13883, 20 h) | MIC ([5]; ATCC 29212, 20 h) | MIC ([6]; ATCC 25922, 20 h) | MIC ([7]; ATCC 27853, 20 h) | MIC ([8]; ATCC 29213, 20 h) | Hydrophobicity (% MeCN at elution) [9] | Activity against E. faecalis (in words) ([5]; E. faecalis) | MIC ([10]; ATCC 19606, 20 h) | Activity against S. aureus (in words) ([8]; S. aureus) | MIC ([3]; P. aeruginosa PAO1, Gram-negative, 20 h, Mueller-Hinton broth) | MIC ([4]; K. pneumoniae ATCC 13883, Gram-negative, 20 h, Mueller-Hinton broth) | MIC ([5]; E. faecalis ATCC 29212, Gram-positive, 20 h, Mueller-Hinton broth) | MIC ([10]; A. baumannii ATCC 19606, Gram-negative, 20 h, Mueller-Hinton broth) | MIC ([6]; E. coli ATCC 25922, Gram-negative, 20 h, Mueller-Hinton broth) | MIC ([7]; P. aeruginosa ATCC 27853, Gram-negative, 20 h, Mueller-Hinton broth) | MIC ([8]; S. aureus ATCC 29213, Gram-positive, 20 h, Mueller-Hinton broth)
NCCC[C@H](NC(=O)CN(Cc1ccccc1)C(=O)[C@H](CCCN)NC(=O)CN(Cc1ccccc1)C(=O)[C@H](CCCN)NC(=O)CN(Cc1ccccc1)C(=O)[C@H](CCCN)NC(=O)CN(Cc1ccccc1)C(=O)[C@H](CCCN)NC(=O)CN(Cc1ccccc1)C(=O)[C@@H](N)CCCN)C(=O)N(CC(N)=O)Cc1ccccc1 [Peptidomimetic 10] (H-[Orn][Nphe][Orn][Nphe][Orn][Nphe][Orn][Nphe][Orn][Nphe][Orn][Nphe]-NH2) | 10% | 923 µg/mL | 4 to 8 µg/mL | >64 µg/mL | >64 µg/mL | 4 to 8 µg/mL | 2 to 4 µg/mL | >64 µg/mL |  |  |  |  |  |  |  |  |  |  | 
NCCNCC(=O)N[C@@H](CCc1ccccc1)C(=O)N(CCN)CC(=O)N[C@@H](CCc1ccccc1)C(=O)N(CCN)CC(=O)N[C@@H](CCc1ccccc1)C(=O)N(CCN)CC(=O)N[C@@H](CCc1ccccc1)C(=O)N(CCN)CC(=O)N[C@@H](CCc1ccccc1)C(=O)N(CCN)CC(=O)N[C@@H](CCc1ccccc1)C(N)=O [Peptidomimetic 5] (H-[Gly(N-2-aminoethyl)][hPhe][Gly(N-2-aminoethyl)][hPhe][Gly(N-2-aminoethyl)][hPhe][Gly(N-2-aminoethyl)][hPhe][Gly(N-2-aminoethyl)][hPhe][Gly(N-2-aminoethyl)][hPhe]-NH2) |  | 307 µg/mL | 16 µg/mL (≈ 10.1 µM) | 64 µg/mL (≈ 40.4 µM) | 32 µg/mL (≈ 20.2 µM) | 4 µg/mL (≈ 2.52 µM) | 4 µg/mL (≈ 2.52 µM) | 8 µg/mL (≈ 5.05 µM) | 43.5% | weak activity | >64 µg/mL | moderate activity |  |  |  |  |  |  | 
Colistin [reference compound] |  |  |  |  |  |  |  |  |  |  |  |  | 0.5 µg/mL | 0.25 µg/mL | >64 µg/mL | 0.5 µg/mL | 0.125 to 0.25 µg/mL | 0.125 to 0.25 µg/mL | >64 µg/mL
NCC[C@H](NC(=O)CN(Cc1ccccc1)C(=O)[C@H](CCN)NC(=O)CN(Cc1ccccc1)C(=O)[C@H](CCN)NC(=O)CN(Cc1ccccc1)C(=O)[C@H](CCN)NC(=O)CN(Cc1ccccc1)C(=O)[C@H](CCN)NC(=O)CN(Cc1ccccc1)C(=O)[C@@H](N)CCN)C(=O)N(CC(N)=O)Cc1ccccc1 [Peptidomimetic 9] (H-[Dab][Nphe][Dab][Nphe][Dab][Nphe][Dab][Nphe][Dab][Nphe][Dab][Nphe]-NH2) | 79% | 326 µg/mL | 2 µg/mL (≈ 1.33 µM) | 32 to 64 µg/mL | >64 µg/mL | 2 to 4 µg/mL | 1 µg/mL (≈ 0.666 µM) | >64 µg/mL |  |  |  |  |  |  |  |  |  |  | 
NCCCCC[C@H](NC(=O)CN(CCc1ccccc1)C(=O)[C@H](CCCCCN)NC(=O)CN(CCc1ccccc1)C(=O)[C@H](CCCCCN)NC(=O)CN(CCc1ccccc1)C(=O)[C@H](CCCCCN)NC(=O)CN(CCc1ccccc1)C(=O)[C@H](CCCCCN)NC(=O)CN(CCc1ccccc1)C(=O)[C@@H](N)CCCCCN)C(=O)N(CCc1ccccc1)CC(N)=O [Peptidomimetic 16] (H-[hLys][Gly(NCH2CH2Ph)][hLys][Gly(NCH2CH2Ph)][hLys][Gly(NCH2CH2Ph)][hLys][Gly(NCH2CH2Ph)][hLys][Gly(NCH2CH2Ph)][hLys][Gly(NCH2CH2Ph)]-NH2) | 9% | 410 µg/mL | 32 µg/mL (≈ 17.4 µM) | >64 µg/mL | >64 µg/mL | 4 µg/mL (≈ 2.18 µM) | 16 µg/mL (≈ 8.71 µM) | >64 µg/mL | 41.1% |  |  |  |  |  |  |  |  |  | 
NCC[C@H](NC(=O)CN(CCc1ccccc1)C(=O)[C@H](CCN)NC(=O)CN(CCc1ccccc1)C(=O)[C@H](CCN)NC(=O)CN(CCc1ccccc1)C(=O)[C@H](CCN)NC(=O)CN(CCc1ccccc1)C(=O)[C@H](CCN)NC(=O)CN(CCc1ccccc1)C(=O)[C@@H](N)CCN)C(=O)N(CCc1ccccc1)CC(N)=O [Peptidomimetic 13] (H-[Dab][Gly(NCH2CH2Ph)][Dab][Gly(NCH2CH2Ph)][Dab][Gly(NCH2CH2Ph)][Dab][Gly(NCH2CH2Ph)][Dab][Gly(NCH2CH2Ph)][Dab][Gly(NCH2CH2Ph)]-NH2) | 53% | 261 µg/mL | 2 to 4 µg/mL | 32 µg/mL (≈ 20.2 µM) | >64 µg/mL | 4 µg/mL (≈ 2.52 µM) | 2 µg/mL (≈ 1.26 µM) | >64 µg/mL |  |  | >64 µg/mL |  |  |  |  |  |  |  | 
NCCCCCNCC(=O)N[C@@H](CCc1ccccc1)C(=O)N(CCCCCN)CC(=O)N[C@@H](CCc1ccccc1)C(=O)N(CCCCCN)CC(=O)N[C@@H](CCc1ccccc1)C(=O)N(CCCCCN)CC(=O)N[C@@H](CCc1ccccc1)C(=O)N(CCCCCN)CC(=O)N[C@@H](CCc1ccccc1)C(=O)N(CCCCCN)CC(=O)N[C@@H](CCc1ccccc1)C(N)=O [Peptidomimetic 8] (H-[N(5-aminopentyl)Gly][hPhe][N(5-aminopentyl)Gly][hPhe][N(5-aminopentyl)Gly][hPhe][N(5-aminopentyl)Gly][hPhe][N(5-aminopentyl)Gly][hPhe][N(5-aminopentyl)Gly][hPhe]-NH2) | 9% | 266 µg/mL | 64 µg/mL (≈ 34.8 µM) | 64 µg/mL (≈ 34.8 µM) | >64 µg/mL | 2 µg/mL (≈ 1.09 µM) | 64 µg/mL (≈ 34.8 µM) | >64 µg/mL | 40.9% |  |  |  |  |  |  |  |  |  | 
